From article PMC4102417 (PLoS Neglected Tropical Diseases, 2014)
Counter-ions that a name gives are not always drawn. Like-named read-outs stand apart in the source and are kept apart here.

Columns and labels:
[1] = system: T. cruzi (Tulahuen strain); experiment: microbe, parasite or virus in culture; type: cell-based, Trypanosoma cruzi; conditions: for activity at 10 µM / EC50: Trypanosoma cruzi, TULAHUEN, Fibroblast; for activity at 10 µM: 120 h, read-out: T. cruzi % growth @ 10 uM (Amastigotes); for EC50: read-out: T. cruzi EC50
Protocol: Compounds were tested against T. cruzi (Tulahuen strain) stably expressing the beta-galactosidase gene as previously described. […] Fibroblasts were plated at a density of 2×10^3 per well in 96 well tissue culture plates. After 24 hours of incubation, 1×10^4 trypomastigotes/well were added to the fibroblasts and incubated for 4 hours before addition of the test compounds from the Spectrum Collection (10 µM final concentration). Cultures were incubated at 37°C for 5 days, then developed with chlorophenol red β-D-galactopyranoside as previously described. The percent inhibition is reported with standard deviation of the mean. […] Z-prime values were calculated for each 96-well plate based on positive (4 wells) and negative controls (4 wells).

[2] = system: 3T3 fibroblast cells; experiment: in vitro; type: cell-based, murine; conditions: 10 uM, Table S2; for activity at 10 µM: Mus musculus, NIH3T3, 72 h, read-out: Mammalian (3T3) cell % growth at 10 uM

With “1-methyl-9H-pyrido[3,4-b]indol-7-ol hydrochloride [HARMOL]” the “T. cruzi % growth @ 10 uM (Amastigotes)” value ([1]; 10 uM, Table S2) was 4.4% and the “Mammalian (3T3) cell % growth at 10 uM” value [2] was 71.4%.
`CC1(C)C(=O)C2OC2C2(C)C1CC(O)C1(C)C2CCC2(C)C(c3ccoc3)OC(=O)C3OC321` (stereo not drawn) [1,2alpha-EPOXYDEACETOXYDIHYDROGEDUNIN, 7-(furan-3-yl)-20-hydroxy-1,8,12,17,17-pentamethyl-3,6,14-trioxahexacyclo[9.9.0.0^{2,4}.0^{2,8}.0^{12,18}.0^{13,15}]icosane-5,16-dione] was tested, and the activity at 10 µM ([1]; 10 uM, Table S2) was 7.8% and the activity at 10 µM [2] was 77.3%.
Work on `O=C(/C=C(/O)c1ccccc1)c1ccccc1O` [2',beta-DIHYDROXYCHALCONE, (2E)-3-hydroxy-1-(2-hydroxyphenyl)-3-phenylprop-2-en-1-one] yielded an activity at 10 µM ([1]; 10 uM, Table S2) of 10% and an activity at 10 µM [2] of 100%.
`COc1ccc(C(=O)c2ccc(O)cc2)c(O)c1O` [2,3,4'-TRIHYDROXY-4-METHOXYBENZOPHENONE] showed an activity at 10 µM ([1]; 10 uM, Table S2) of 3.6% and an activity at 10 µM [2] of 86.8%.
With `CCOc1ccc(C(=O)c2ccc(OC)c(O)c2O)cc1` [2,3-DIHYDROXY-4-METHOXY-4'-ETHOXYBENZOPHENONE] the activity at 10 µM ([1]; 10 uM, Table S2) was 9.1% and the activity at 10 µM [2] was 95.8%.
`Cc1[nH]c2ccccc2c1CN(C)C` [2-METHYL GRAMINE] gave an activity at 10 µM ([1]; 10 uM, Table S2) of 20.8% and an activity at 10 µM [2] of 86.9%.
With `COc1ccc(-c2cc(=O)c3ccccc3o2)cc1OC` [3',4'-DIMETHOXYFLAVONE, 2-(3,4-dimethoxyphenyl)-4H-chromen-4-one] the activity at 10 µM ([1]; 10 uM, Table S2) was 24% and the activity at 10 µM [2] was 86.4%.
In the case of `O=c1c(O)c(-c2ccccc2)oc2cccc(O)c12` [3,5-DIHYDROXYFLAVONE], the activity at 10 µM ([1]; 10 uM, Table S2) is reported as 12.3% and the activity at 10 µM [2] is reported as 99.6%.
With `COC(=O)C[C@H]1C(C)(C)[C@@H](O)[C@@H]2CC3=C4CC(O)O[C@@H](c5ccoc5)[C@]4(C)CCC3[C@@]1(C)C2=O` (stereo partly drawn) [3,16-DIDEOXYMEXICANOLIDE-3beta-DIOL] the activity at 10 µM ([1]; 10 uM, Table S2) was 22.1% and the activity at 10 µM [2] was 99.8%.
For `CC(=O)OC1CCC2(C)C(CC(OC(C)=O)C3(C)C4=CC(=O)OC(c5ccoc5)C4(C)CCC23)C1(C)C` (stereo not drawn) [3-DEOXO-3beta-ACETOXYDEOXYDIHYDROGEDUNIN, 18-(acetyloxy)-6-(furan-3-yl)-1,7,11,15,15-pentamethyl-4-oxo-5-oxatetracyclo[8.8.0.0^{2,7}.0^{11,16}]octadec-2-en-14-yl acetate], the activity at 10 µM ([1]; 10 uM, Table S2) was 7.8% and the activity at 10 µM [2] was 100%.
For `COc1ccc2c(c1)OC[C@@H](Cc1ccc(OC)c(OC)c1)[C@@H]2O` [3-DESHYDRO[…] ETHER], the activity at 10 µM ([1]; 10 uM, Table S2) was 24.9% and the activity at 10 µM [2] was 80.4%.
Compound `COc1ccc(-c2oc3ccccc3c(=O)c2O)cc1OC` [3-HYDROXY-3',4'-DIMETHOXYFLAVONE] has an activity at 10 µM ([1]; 10 uM, Table S2) of 5.2% and an activity at 10 µM [2] of 99.2%.
For `O=c1c(O)c(-c2ccccc2)oc2ccccc12` [3-HYDROXYFLAVONE, 3-hydroxy-2-phenyl-4H-chromen-4-one], the activity at 10 µM ([1]; 10 uM, Table S2) was 4.1% and the activity at 10 µM [2] was 85.7%.
With `C[C@@H]1CC[C@@]23CCC4(C)[C@@](C=CC5[C@@]6(C)CCC(=O)C(C)(C)C6CC[C@]54C)(OC2=O)C3[C@H]1C` (stereo partly shown) [3-OXOURSAN (28-13)OLIDE] the activity at 10 µM ([1]; 10 uM, Table S2) was 11.1% and the activity at 10 µM [2] was 100%.
Compound `COc1ccc2c(c1)OCC(Cc1ccc(OC)c(OC)c1)C2=O` (stereo not shown) [3-[(3,4-dimethoxyphenyl)methyl]-7-methoxy-3,4-dihydro-2H-1-benzopyran-4-one] has an activity at 10 µM ([1]; 10 uM, Table S2) of 8.3% and an activity at 10 µM [2] of 84.5%.
Compound `CC(=O)O[C@H]1CC[C@]2(C)C(C[C@H](OC(C)=O)[C@]3(C)C4=CC(=O)OC(c5ccoc5)[C@@]4(C)CCC23)C1(C)C` (stereo partly drawn) [3beta,7beta-[…]] has an activity at 10 µM ([1]; 10 uM, Table S2) of 2.5% and an activity at 10 µM [2] of 72.2%.
`CC(=O)OC1CCC2(C)C(CC(OC(C)=O)C3(C)C2CCC2(C)C(c4ccoc4)OC(=O)C4OC423)C1(C)C` (stereo not drawn) [3beta-ACETOXYDEOXODIHYDROGEDUNIN, 15-(acetyloxy)-7-(furan-3-yl)-1,8,12,16,16-pentamethyl-5-oxo-3,6-dioxapentacyclo[9.8.0.0^{2,4}.0^{2,8}.0^{12,17}]nonadecan-19-yl acetate] showed an activity at 10 µM ([1]; 10 uM, Table S2) of 7% and an activity at 10 µM [2] of 96.7%.
Compound `COc1ccc(-c2cc(=O)c3ccccc3o2)cc1` [4'-METHOXYFLAVONE, 2-(4-methoxyphenyl)-4H-chromen-4-one] has an activity at 10 µM ([1]; 10 uM, Table S2) of 18.7% and an activity at 10 µM [2] of 100%.
`CC(C)CCCC(C)C1CCC2C3CC(=O)C4CC(O)CCC4(C)C3CCC12C` (stereo not drawn) [5alpha-CHOLESTAN-3beta-OL-6-ONE, 5-hydroxy-2,15-dimethyl-14-(6-methylheptan-2-yl)tetracyclo[8.7.0.0^{2,7}.0^{11,15}]heptadecan-8-one] gave an activity at 10 µM ([1]; 10 uM, Table S2) of 7.8% and an activity at 10 µM [2] of 100%.
`O=c1cc(-c2ccccc2)oc2c(O)c(O)ccc12` [7,8-DIHYDROXYFLAVONE, 7,8-dihydroxy-2-phenyl-4H-chromen-4-one] was tested, and the activity at 10 µM ([1]; 10 uM, Table S2) was 1.3% and the activity at 10 µM [2] was 72.6%.
`CC(C)CCC[C@@H](C)[C@H]1CC[C@H]2[C@@H]3C(=O)C=C4C[C@@H](O)CC[C@]4(C)[C@H]3CC[C@]12C` [7-OXOCHOLESTEROL, (1S,2R,5S,10S,11S,14R,15R)-5-hydroxy-2,15-dimethyl-14-[(2R)-6-methylheptan-2-yl]tetracyclo[8.7.0.0^{2,7}.0^{11,15}]heptadec-7-en-9-one] gave an activity at 10 µM ([1]; 10 uM, Table S2) of 23.4% and an activity at 10 µM [2] of 68.5%.
`COC(=O)C1(C)CCCC2(C)c3ccc(C(C)C)cc3C(=O)CC12` (stereo not shown) [7-OXOC[…], METHYL ESTER, methyl 1,4a-dimethyl-9-oxo-7-(propan-2-yl)-1,2,3,4,4a,9,10,10a-octahydrophenanthrene-1-carboxylate] showed an activity at 10 µM ([1]; 10 uM, Table S2) of 5.1% and an activity at 10 µM [2] of 91.8%.
With `COc1ccc(-c2cc(=O)c3c(O)cc(O)cc3o2)cc1` [ACACETIN, 5,7-dihydroxy-2-(4-methoxyphenyl)-4H-chromen-4-one] the activity at 10 µM ([1]; 10 uM, Table S2) was 23.1% and the activity at 10 µM [2] was 77.4%.
`CC(=O)[C@H]1CC[C@H]2[C@@H]3CC[C@H]4C[C@@H](O)CC[C@]4(C)[C@H]3CC[C@]12C` [ALLOPREGNANOLONE, 1-[(1S,2S,5S,7S,10R,11S,14S,15S)-5-hydroxy-2,15-dimethyltetracyclo[8.7.0.0^{2,7}.0^{11,15}]heptadecan-14-yl]ethan-1-one] gave an activity at 10 µM ([1]; 10 uM, Table S2) of 3.7% and an activity at 10 µM [2] of 100%.
`Clc1ccc2c(c1)C(N1CCNCC1)=Nc1ccccc1O2` [AMOXAPINE, 13-chloro-10-(piperazin-1-yl)-2-oxa-9-azatricyclo[9.4.0.0^{3,8}]pentadeca-1(15),3,5,7,9,11,13-heptaene] gave an activity at 10 µM ([1]; 10 uM, Table S2) of 11.7% and an activity at 10 µM [2] of 98%.
`CC1C=CC=CC=CC=CC=CC=CC=CC(OC2OC(C)C(O)C(N)C2O)CC2OC(O)(CC(O)CC(O)C(O)CCC(O)CC(O)CC(=O)OC(C)C(C)C1O)CC(O)C2C(=O)O` (stereo not shown) [AMPHOTERICIN B, 33-[(4-amino-3,5-dihydroxy-6-methyloxan-2-yl)oxy]-1,3,5,6,9,11,17,37-octahydroxy-15,16,18-trimethyl-13-oxo-14,39-dioxabicyclo[33.3.1]nonatriaconta-19,21,23,25,27,29,31-heptaene-36-carboxylic acid] showed an activity at 10 µM ([1]; 10 uM, Table S2) of 20.6%, an EC50 ([1]; Table S2, amastigotes) of 0.04 nM and an EC50 [1] of 40 nM. It also gave an activity at 10 µM [2] of 89.7%.
In the case of `CC12C=CC(=O)C=C1CCC1C2CCC2(C)C(=O)CCC12` (stereo not shown) [ANDROSTA-1,4-DIEN-3,17-DIONE, 2,15-dimethyltetracyclo[8.7.0.0^{2,7}.0^{11,15}]heptadeca-3,6-diene-5,14-dione], the activity at 10 µM ([1]; 10 uM, Table S2) is reported as 25.1% and the activity at 10 µM [2] is reported as 72.1%.
`O=c1cc(-c2ccc(O)cc2)oc2cc(O)cc(O)c12` [APIGENIN, 5,7-dihydroxy-2-(4-hydroxyphenyl)-4H-chromen-4-one] was tested, and the activity at 10 µM ([1]; 10 uM, Table S2) was 17.7% and the activity at 10 µM [2] was 73.6%.
`CC1CCC2C(C)C(=O)OC3OC4(C)CCC1C32OO4` (stereo not shown) [ARTEMISININ, 1,5,9-trimethyl-11,14,15,16-tetraoxatetracyclo[10.3.1.0^{4,13}.0^{8,13}]hexadecan-10-one] showed an activity at 10 µM ([1]; 10 uM, Table S2) of 17.5%, an EC50 ([1]; Table S2, amastigotes) of 5020 nM and an activity at 10 µM [2] of 77.6%.
With `COc1ccc(CCN2CCC(Nc3nc4ccccc4n3Cc3ccc(F)cc3)CC2)cc1` [ASTEMIZOLE, 1-[(4-fluorophenyl)methyl]-N-{1-[2-(4-methoxyphenyl)ethyl]piperidin-4-yl}-1H-1,3-benzodiazol-2-amine] the activity at 10 µM ([1]; 10 uM, Table S2) was 11.6% and the activity at 10 µM [2] was 100%.
Compound `CN1CCCC(n2nc(Cc3ccc(Cl)cc3)c3ccccc3c2=O)CC1` (stereo not shown) [AZELASTINE HYDROCHLORIDE, 4-[(4-chlorophenyl)methyl]-2-(1-methylazepan-4-yl)-1,2-dihydrophthalazin-1-one hydrochloride] has an activity at 10 µM ([1]; 10 uM, Table S2) of 1.5%, an EC50 [1] of 2200 nM and an activity at 10 µM [2] of 95.1%.
Compound `CCCCc1oc2ccccc2c1C(=O)c1cc(I)c(OCCN(CC)CC)c(I)c1` [Amiodarone, (2-{4-[(2-butyl-1-benzofuran-3-yl)carbonyl]-2,6-diiodophenoxy}ethyl)diethylamine hydrochloride] has an activity at 10 µM [2] of 86.7%.
`CN(C)CCCN1c2ccccc2CCc2ccc(Cl)cc21` [Clomipramine, (3-{5-chloro-2-azatricyclo[9.4.0.0^{3,8}]pentadeca-1(15),3,5,7,11,13-hexaen-2-yl}propyl)dimethylamine hydrochloride] gave an activity at 10 µM [2] of 84.6%.
Work on `CNCCC(Oc1ccc(C(F)(F)F)cc1)c1ccccc1` (stereo not shown) [Fluoxetine, methyl({3-phenyl-3-[4-(trifluoromethyl)phenoxy]propyl})amine hydrochloride] yielded an activity at 10 µM [2] of 100%.
Work on `CNC1CCC(c2ccc(Cl)c(Cl)c2)c2ccccc21` (stereo not shown) [Sertraline, 4-(3,4-dichlorophenyl)-N-methyl-1,2,3,4-tetrahydronaphthalen-1-amine hydrochloride] yielded an activity at 10 µM [2] of 100%.
